Assay results: US7510825B2, “Kits and methods for detection of apoptotic cells” (NST NeuroSurvival Technologies Ltd, priority 2000, dated 2009)

What was measured:
[1] = tested on: L5178-S (LY-S) murine lymphoma tumors; test: Detection by DDC of tumor cell apoptosis in lymphoma-bearing mice after Taxol; type: in vivo; conditions: Taxol 20 mg/kg treated vs control animals; DDC i.v. 24 h after Taxol, sacrifice 2 h later
Procedure: (§1) A. Administration of DDC in-vivo: Injection of 200 μl of DDC intravenously. Following 1-2 hours, animal is sacrificed, and the desired organ is placed in a test tube or on a small plate, suitable for liquid nitrogen freezing. The plate is then covered with an aluminum foil, and transferred to liquid nitrogen. Following 5-30 minutes the specimen is being frozen to −80° C. and kept at −80° C. for at least 16 hr. B. Analysis of the Specimen: • a. Whole organ imaging Ex-vivo whole organ fluorescence imaging may be carried out on freshly excised specimen, that can be analyzed under a stereomicroscope (such as Leica MZ FL III, Leica Switzerland). DDC may be visualized using 360cx and >420cm nm filter set. Emitted fluorescence can be imaged using appropriate camera and software, such as a Leica DC 300F Distal camera and images can be processed and analyzed by Leica QWin Lite software. • b. Histological analysis, from the frozen organ or tissue, 4 μm cryosections are prepared on slides. Analysis of the tissue sections can be performed using a fluorescence microscope with a UV filter characterized by excitation at 360-370 nm (band pass) and emission at 420 nm (barrier filter) In case that staining of the examined tissue is desired, the following procedures can be applied: […]

[2] = tested on: MCF-7 breast carcinoma tumors; test: Detection by DDC of apoptosis in breast carcinoma after irradiation; type: in vivo, mice; conditions: following irradiation (two doses of 8 Gray) vs non irradiated
Procedure: as §1

BCL1 bone marrow cells = test: Detection by DDC of apoptosis in BCL1 bone marrow cells following chemotherapy; type: in vivo, mice
Procedure: as §1

[3] = tested on: neuronal cells of the injured brain area; test: Detection by DDC of apoptosis following traumatic brain injury (TBI); type: in vivo, mice; conditions: DDC 24 hr after traumatic injury, brain excised after 2 hr
Procedure: A. Administration of DDC in-vivo: Injection of 200 μl of DDC intravenously. Following 1-2 hours, animal is sacrificed, and the desired organ is placed in a test tube or on a small plate, suitable for liquid nitrogen freezing. The plate is then covered with an aluminum foil, and transferred to liquid nitrogen. Following 5-30 minutes the specimen is being frozen to −80° C. and kept at −80° C. for at least 16 hr. B. Analysis of the Specimen: • a. Whole organ imaging Ex-vivo whole organ fluorescence imaging may be carried out on freshly excised specimen, that can be analyzed under a stereomicroscope (such as Leica MZ FL III, Leica Switzerland). DDC may be visualized using 360cx and >420cm nm filter set. Emitted fluorescence can be imaged using appropriate camera and software, such as a Leica DC 300F Distal camera and images can be processed and analyzed by Leica QWin Lite software. • b. Histological analysis, from the frozen organ or tissue, 4 μm cryosections are prepared on slides. Analysis of the tissue sections can be performed using a fluorescence microscope with a UV filter characterized by excitation at 360-370 nm (band pass) and emission at 420 nm (barrier filter) In case that staining of the examined tissue is desired, the following procedures can be applied:
TBI model was performed on Balb/C, 8-9 weeks old, according to the protocol detailed in Yun Chen et al., 1996. […]

[4] = tested on: renal tubular cells, ischemic kidney; test: Renal cell injury (ischemia-reperfusion) detection by DDC; type: in vivo, rats
Procedure: as §1

[5] = tested on: Jurkat cells (T-cell leukemia, human); test: Binding of DDC and PI to Jurkat cells treated with anti-Fas antibody, FACS; type: cell-based; conditions: anti-Fas antibody 0.1 μg/ml for 180 minutes
Procedure: a. Non Adherent Cells • 1. Inducing cells to undergo apoptosis. A negative control should be prepared by incubating cells in the absence of apoptosis induction agent. • 2. Washing the cells and adjusting the number of cells to 1×10^7/ml in PBS. • 3. Transferring 30 μl from the cell suspension to a suitable test tube for FACS analysis. • 4. Adding 260 μl of PBS and 5 μl of DDC to the tube and incubating for 15 minutes at room temperature (RT), protected from light. • 5. Adding 5 μl of Propidium Iodide (PI) and perform FACS analysis.
Analyzing DDC accumulation by flow cytometry using FACS apparatus that includes a UV laser. For DDC analysis: the UV detector excitation is at 356 nm and the emission is at 530 nm with a band pass of […]. […] The population should be separated into three groups: live cells will show a low level of fluorescence (background), apoptotic cells will show higher UV fluorescence and necrotic cells will show both red and higher UV fluorescence.
Jurkat cells (T-cell leukemia, human) were treated with anti-Fas antibody (0.1 μg/ml) for 180 minutes, Following incubation the cells were washed and stained with DDC (as detailed in DDC protocols, IIIA). […] Following incubation with anti-Fas antibody, most of the cells shifted to the lower right section (AII, EA) of higher fluorescence value, indicating increased staining with DDC. […]

## CN(C)c1cccc2c(S(=O)(=O)NC(CSSCC(NS(=O)(=O)c3cccc4c(N(C)C)cccc34)C(=O)O)C(=O)O)cccc12 (centres unmarked) [DDC]
[1]
  DDC uptake into tumors: marked increase of DDC uptake
[2]
  uptake of DDC into single cells of the tumor: increased uptake
BCL1 bone marrow cells; 24 hr following Cyclophosphamide 300 mg/kg and Taxol 20 mg/kg
  fluorescent labeling of bone marrow cells: a significant number of apoptotic/necrotic cells are labeled
BCL1 bone marrow cells; non-treated group
  fluorescent labeling of bone marrow cells: no fluorescent labeling
[3]
  correlation of DDC staining with H&E staining: correlated with H&E staining
[4]; 45 min renal artery clamping, DDC 20 h after reperfusion, ex-vivo whole organ fluorescence imaging
  DDC uptake, ischemic kidney compared with control kidney: Significant increase in DDC uptake
[4]; kidney sections after ischemia-reperfusion
  DDC staining versus TUNEL staining: Several cells were stained with DDC but were negative for TUNEL staining
[5]
  fluorescence (DDC accumulation) of treated versus control cells: marked shift of fluorescence
